Several values for one entry are separate records, joined by “and”; a condition that tells them apart may be missing. Equal entries are not always repeated. HELM strings list units from the 5' end as sugar, base in round brackets, then linkage (d deoxyribose, r ribose, m 2'-O-methyl, p phosphodiester). Methylation of C is not given here. [moe] = 2'-O-(2-methoxyethyl) (MOE); [cEt] = constrained ethyl (cEt); [sp] = phosphorothioate linkage
Target: HBV
Details: ASO

| Substance | target mRNA inhibition (HepG2, 0.07 µM) | further results |
| --- | --- | --- |
| RNA1{[moe](A)[sp].[moe](G)[sp].d(G)[sp].d(T)[sp].d(G)[sp].d(A)[sp].d(A)[sp].d(G)[sp].d(C)[sp].d(G)[sp].d(A)[sp].[moe](A)[sp].[moe](G)[sp].[moe](T)[sp].[moe](G)[sp].[moe](C)[sp].[moe](A)}$$$$V2.0 | 72% and 69% |  |
| RNA1{[moe](A)[sp].[moe](A)[sp].d(T)[sp].d(T)[sp].d(T)[sp].d(A)[sp].d(T)[sp].d(G)[sp].d(C)[sp].d(C)[sp].d(T)[sp].[moe](A)[sp].[moe](C)[sp].[moe](A)[sp].[moe](G)[sp].[moe](C)[sp].[moe](C)}$$$$V2.0 | 52% and 48% |  |
| RNA1{[moe](G)[sp].[cEt](G)[sp].[cEt](A)[sp].d(G)[sp].d(T)[sp].d(T)[sp].d(C)[sp].d(C)[sp].d(G)[sp].d(C)[sp].d(A)[sp].d(G)[sp].d(T)[sp].[cEt](A)[sp].[cEt](T)[sp].[moe](G)}$$$$V2.0 | 90% and 76% | target mRNA inhibition (HepG2, 0.0092593 µM): 13%; target mRNA inhibition (HepG2, 0.0277778 µM): 42%; target mRNA inhibition (HepG2, 0.0833333 µM): 74%; target mRNA inhibition (HepG2, 0.25 µM): 89% |
| RNA1{[moe](C)[sp].[moe](G)[sp].[moe](C)[sp].[moe](A)[sp].[moe](G)[sp].d(T)[sp].d(A)[sp].d(T)[sp].d(G)[sp].d(G)[sp].d(A)[sp].d(T)[sp].d(C)[sp].d(G)[sp].[moe](G)[sp].[moe](C)[sp].[moe](A)}$$$$V2.0 | 56% and 57% |  |
| RNA1{[moe](A)[sp].[moe](G)[sp].d(G)[sp].d(A)[sp].d(G)[sp].d(T)[sp].d(T)[sp].d(C)[sp].d(C)[sp].d(G)[sp].d(C)[sp].[moe](A)[sp].[moe](G)[sp].[moe](T)[sp].[moe](A)[sp].[moe](T)[sp].[moe](G)}$$$$V2.0 | 81% and 63% |  |
| RNA1{[moe](G)[sp].[moe](T)[sp].[moe](T)[sp].[moe](C)[sp].[moe](C)[sp].[moe](G)[sp].d(C)[sp].d(A)[sp].d(G)[sp].d(T)[sp].d(A)[sp].d(T)[sp].d(G)[sp].d(G)[sp].d(A)[sp].[moe](T)[sp].[moe](C)}$$$$V2.0 | 74% and 57% |  |
| RNA1{[moe](C)[sp].[cEt](G)[sp].[cEt](G)[sp].d(G)[sp].d(C)[sp].d(A)[sp].d(A)[sp].d(C)[sp].d(A)[sp].d(T)[sp].d(A)[sp].d(C)[sp].d(C)[sp].[cEt](T)[sp].[cEt](T)[sp].[moe](G)}$$$$V2.0 | 61% and 63% |  |
| RNA1{[moe](A)[sp].[cEt](A)[sp].d(C)[sp].d(C)[sp].d(A)[sp].d(C)[sp].d(T)[sp].d(G)[sp].d(A)[sp].d(A)[sp].d(C)[sp].d(A)[sp].[cEt](A)[sp].[moe](A)[sp].[cEt](T)[sp].[moe](G)}$$$$V2.0 | 55% and 38% |  |
| RNA1{[moe](C)[sp].[cEt](G)[sp].d(T)[sp].d(G)[sp].d(C)[sp].d(A)[sp].d(G)[sp].d(A)[sp].d(G)[sp].d(G)[sp].d(T)[sp].d(G)[sp].[cEt](A)[sp].[moe](A)[sp].[cEt](G)[sp].[moe](C)}$$$$V2.0 | 76% and 79% |  |
| RNA1{[moe](C)[sp].[moe](G)[sp].[moe](T)[sp].[moe](G)[sp].[moe](C)[sp].d(A)[sp].d(G)[sp].d(A)[sp].d(G)[sp].d(G)[sp].d(T)[sp].d(G)[sp].d(A)[sp].d(A)[sp].[moe](G)[sp].[moe](C)[sp].[moe](G)}$$$$V2.0 | 74% and 63% |  |
| RNA1{[moe](A)[sp].[moe](A)[sp].[moe](T)[sp].d(T)[sp].d(T)[sp].d(A)[sp].d(T)[sp].d(G)[sp].d(C)[sp].d(C)[sp].d(T)[sp].d(A)[sp].[moe](C)[sp].[moe](A)[sp].[moe](G)[sp].[moe](C)[sp].[moe](C)}$$$$V2.0 | 56% and 39% |  |
| RNA1{[moe](T)[sp].[moe](A)[sp].[moe](T)[sp].d(G)[sp].d(C)[sp].d(C)[sp].d(T)[sp].d(A)[sp].d(C)[sp].d(A)[sp].d(G)[sp].d(C)[sp].d(C)[sp].[cEt](T)[sp].[cEt](C)[sp].[cEt](C)}$$$$V2.0 | 39% and 45% |  |
| RNA1{[moe](A)[sp].[moe](C)[sp].[moe](T)[sp].[moe](A)[sp].d(G)[sp].d(T)[sp].d(A)[sp].d(A)[sp].d(A)[sp].d(C)[sp].d(T)[sp].d(G)[sp].d(A)[sp].[moe](G)[sp].[moe](C)[sp].[moe](C)}$$$$V2.0 | 62% and 63% |  |
| RNA1{[moe](A)[sp].[moe](G)[sp].[moe](A)[sp].[moe](G)[sp].d(G)[sp].d(T)[sp].d(G)[sp].d(A)[sp].d(A)[sp].d(G)[sp].d(C)[sp].d(G)[sp].d(A)[sp].[moe](A)[sp].[moe](G)[sp].[moe](T)}$$$$V2.0 | 52% and 54% |  |
| RNA1{[moe](C)[sp].[cEt](A)[sp].[cEt](G)[sp].d(C)[sp].d(T)[sp].d(T)[sp].d(G)[sp].d(G)[sp].d(A)[sp].d(G)[sp].d(G)[sp].d(C)[sp].d(T)[sp].[cEt](T)[sp].[cEt](G)[sp].[moe](A)}$$$$V2.0 | 5% and 12% |  |
| RNA1{[moe](A)[sp].[moe](C)[sp].[moe](C)[sp].[moe](A)[sp].[moe](C)[sp].d(T)[sp].d(G)[sp].d(A)[sp].d(A)[sp].d(C)[sp].d(A)[sp].d(A)[sp].d(A)[sp].d(T)[sp].[moe](G)[sp].[moe](G)}$$$$V2.0 | 60% and 52% |  |

| Substance | target mRNA inhibition (HepG2, 0.07 µM) | further results |
| --- | --- | --- |
| RNA1{[moe](C)[sp].[cEt](G)[sp].[cEt](T)[sp].d(G)[sp].d(C)[sp].d(A)[sp].d(G)[sp].d(A)[sp].d(G)[sp].d(G)[sp].d(T)[sp].d(G)[sp].d(A)[sp].[cEt](A)[sp].[cEt](G)[sp].[moe](C)}$$$$V2.0 | 68% and 65% |  |
| RNA1{[moe](A)[sp].[cEt](T)[sp].[cEt](T)[sp].d(T)[sp].d(A)[sp].d(T)[sp].d(G)[sp].d(C)[sp].d(C)[sp].d(T)[sp].d(A)[sp].d(C)[sp].d(A)[sp].[cEt](G)[sp].[cEt](C)[sp].[moe](C)}$$$$V2.0 | 57% and 46% |  |
| RNA1{[moe](A)[sp].[moe](G)[sp].d(A)[sp].d(T)[sp].d(G)[sp].d(A)[sp].d(G)[sp].d(G)[sp].d(C)[sp].d(A)[sp].d(T)[sp].[moe](A)[sp].[moe](G)[sp].[moe](C)[sp].[moe](A)[sp].[moe](G)}$$$$V2.0 | 62% and 46% |  |
| RNA1{[moe](C)[sp].[moe](G)[sp].[moe](A)[sp].[moe](A)[sp].[moe](C)[sp].d(C)[sp].d(A)[sp].d(C)[sp].d(T)[sp].d(G)[sp].d(A)[sp].d(A)[sp].d(C)[sp].d(A)[sp].[moe](A)[sp].[moe](A)}$$$$V2.0 | 36% and 19% |  |
| RNA1{[moe](C)[sp].[moe](G)[sp].d(T)[sp].d(G)[sp].d(C)[sp].d(A)[sp].d(G)[sp].d(A)[sp].d(G)[sp].d(G)[sp].d(T)[sp].[moe](G)[sp].[moe](A)[sp].[moe](A)[sp].[moe](G)[sp].[moe](C)[sp].[moe](G)}$$$$V2.0 | 74% and 68% |  |
| RNA1{[moe](A)[sp].[cEt](G)[sp].[cEt](A)[sp].d(A)[sp].d(G)[sp].d(T)[sp].d(C)[sp].d(C)[sp].d(A)[sp].d(C)[sp].d(C)[sp].d(A)[sp].d(C)[sp].[cEt](G)[sp].[cEt](A)[sp].[moe](G)}$$$$V2.0 | 58% and 48% |  |
| RNA1{[moe](A)[sp].[moe](G)[sp].[moe](T)[sp].d(T)[sp].d(C)[sp].d(C)[sp].d(G)[sp].d(C)[sp].d(A)[sp].d(G)[sp].d(T)[sp].d(A)[sp].[moe](T)[sp].[moe](G)[sp].[moe](G)[sp].[moe](A)}$$$$V2.0 | 46% and 58% |  |
| RNA1{[moe](G)[sp].[moe](A)[sp].[moe](G)[sp].[moe](G)[sp].[moe](C)[sp].d(A)[sp].d(T)[sp].d(A)[sp].d(G)[sp].d(C)[sp].d(A)[sp].d(G)[sp].d(C)[sp].d(A)[sp].[moe](G)[sp].[moe](G)}$$$$V2.0 | 44% and 39% |  |
| RNA1{[moe](C)[sp].[cEt](A)[sp].[cEt](C)[sp].d(G)[sp].d(A)[sp].d(G)[sp].d(T)[sp].d(C)[sp].d(T)[sp].d(A)[sp].d(G)[sp].d(A)[sp].d(C)[sp].[cEt](T)[sp].[cEt](C)[sp].[moe](T)}$$$$V2.0 | 44% and 38% |  |
| RNA1{[moe](C)[sp].[moe](T)[sp].[moe](G)[sp].[moe](G)[sp].[moe](A)[sp].d(G)[sp].d(C)[sp].d(C)[sp].d(A)[sp].d(C)[sp].d(C)[sp].d(A)[sp].d(G)[sp].d(C)[sp].[moe](A)[sp].[moe](G)[sp].[moe](G)}$$$$V2.0 | 42% and 44% |  |
| RNA1{[moe](T)[sp].[moe](G)[sp].[moe](A)[sp].[moe](G)[sp].d(G)[sp].d(C)[sp].d(A)[sp].d(T)[sp].d(A)[sp].d(G)[sp].d(C)[sp].d(A)[sp].d(G)[sp].[moe](C)[sp].[moe](A)[sp].[moe](G)[sp].[moe](G)}$$$$V2.0 | 38% and 40% |  |
| RNA1{[moe](A)[sp].[moe](G)[sp].[moe](G)[sp].d(C)[sp].d(A)[sp].d(T)[sp].d(A)[sp].d(G)[sp].d(C)[sp].d(A)[sp].d(G)[sp].d(C)[sp].d(A)[sp].[cEt](G)[sp].[cEt](G)[sp].[cEt](A)}$$$$V2.0 | 69% and 77% |  |
| RNA1{[moe](A)[sp].[cEt](G)[sp].d(C)[sp].d(G)[sp].d(A)[sp].d(A)[sp].d(G)[sp].d(T)[sp].d(G)[sp].d(C)[sp].d(A)[sp].d(C)[sp].[cEt](A)[sp].[moe](C)[sp].[cEt](G)[sp].[moe](G)}$$$$V2.0 | 86% and 88% | target mRNA inhibition (HepG2, 0.0092593 µM): 24%; target mRNA inhibition (HepG2, 0.0277778 µM): 62%; target mRNA inhibition (HepG2, 0.0833333 µM): 84%; target mRNA inhibition (HepG2, 0.25 µM): 91% |
| RNA1{[moe](A)[sp].[moe](C)[sp].[moe](T)[sp].[moe](G)[sp].d(G)[sp].d(A)[sp].d(G)[sp].d(C)[sp].d(C)[sp].d(A)[sp].d(C)[sp].d(C)[sp].d(A)[sp].[moe](G)[sp].[moe](C)[sp].[moe](A)}$$$$V2.0 | 45% and 20% |  |
| RNA1{[moe](G)[sp].[moe](C)[sp].[moe](A)[sp].[moe](C)[sp].[moe](T)[sp].[moe](A)[sp].d(G)[sp].d(T)[sp].d(A)[sp].d(A)[sp].d(A)[sp].d(C)[sp].d(T)[sp].d(G)[sp].d(A)[sp].[moe](G)[sp].[moe](C)}$$$$V2.0 | 74% and 65% |  |
